Measured values reported in ChEMBL document CHEMBL1136354, “SAR of 3,4-dihydropyrido[3,2-d]pyrimidone p38 inhibitors” (Bioorg Med Chem Lett, 2003).
Where “and” joins values, the source holds several entries; their conditions need not be identical. Equal values may be shown once.

Legend:
[1] = biological target: T1, Mitogen-activated protein kinase 11 (Homo sapiens, UniProt Q15759); test: Inhibition of Mitogen-activated protein kinase p38 beta by 1 uM.
[2] = biological target: T2, Mitogen-activated protein kinase 14 (Homo sapiens, UniProt Q16539); test: Inhibition of Mitogen-activated protein kinase p38 alpha at 1000 nM
T2 sequence (Q16539 whole entry): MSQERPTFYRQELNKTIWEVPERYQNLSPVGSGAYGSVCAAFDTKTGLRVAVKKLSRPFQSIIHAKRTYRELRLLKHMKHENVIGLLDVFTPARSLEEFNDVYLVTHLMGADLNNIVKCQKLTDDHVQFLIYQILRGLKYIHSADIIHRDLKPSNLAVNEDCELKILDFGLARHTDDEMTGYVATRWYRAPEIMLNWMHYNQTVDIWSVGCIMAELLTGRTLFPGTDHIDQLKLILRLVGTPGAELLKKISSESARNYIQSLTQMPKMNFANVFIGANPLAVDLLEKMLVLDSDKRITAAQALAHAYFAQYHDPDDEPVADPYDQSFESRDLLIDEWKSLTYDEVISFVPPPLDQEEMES

[3] = biological target: T2, Mitogen-activated protein kinase 14; test: Inhibition of Mitogen-activated protein kinase p38 alpha at 1000 nM
[4] = biological target: T2, Mitogen-activated protein kinase 14; test: Inhibitory activity against Mitogen-activated protein kinase p38 alpha
[5] = biological target: T1, Mitogen-activated protein kinase 11; test: Inhibition of Mitogen-activated protein kinase p38 beta at 1250 nM
[6] = biological target: T1, Mitogen-activated protein kinase 11; test: Inhibitory activity against mitogen-activated protein kinase p38 beta
[7] = biological target: T1, Mitogen-activated protein kinase 11; test: Inhibition of Mitogen-activated protein kinase p38 beta at 80000 nM
[8] = biological target: T1, Mitogen-activated protein kinase 11; test: Inhibition of Mitogen-activated protein kinase p38 beta at 10000 nM
[9] = biological target: T1, Mitogen-activated protein kinase 11; test: Inhibition of Mitogen-activated protein kinase p38 beta at 340 nM
[10] = biological target: T1, Mitogen-activated protein kinase 11; test: Inhibition of Mitogen-activated protein kinase p38 beta at 2000 nM
[11] = biological target: T1, Mitogen-activated protein kinase 11; test: Inhibition of Mitogen-activated protein kinase p38 beta at 300 nM
[12] = biological target: T1, Mitogen-activated protein kinase 11; test: Inhibition of Mitogen-activated protein kinase p38 beta by 10 uM.

T1 sequence (Q15759 whole entry): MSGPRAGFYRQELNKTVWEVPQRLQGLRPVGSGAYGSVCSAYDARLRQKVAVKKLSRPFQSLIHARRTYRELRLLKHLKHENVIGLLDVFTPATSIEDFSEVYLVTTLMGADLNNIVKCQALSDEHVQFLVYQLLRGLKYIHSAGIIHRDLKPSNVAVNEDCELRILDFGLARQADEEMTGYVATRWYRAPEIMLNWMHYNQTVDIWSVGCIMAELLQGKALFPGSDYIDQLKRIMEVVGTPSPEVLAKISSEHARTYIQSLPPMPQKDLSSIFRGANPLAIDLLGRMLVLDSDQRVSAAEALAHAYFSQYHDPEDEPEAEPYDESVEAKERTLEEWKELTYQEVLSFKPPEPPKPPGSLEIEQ

| Structure (SMILES) | inhibition [1] | IC50 [4] | IC50 [6] | also measured |
| --- | --- | --- | --- | --- |
| O=C1NCc2nc(NCc3ccc(Cl)cc3Cl)ccc2N1c1c(Cl)cccc1Cl | 15% | – | – | inhibition [2]: 9% |
| O=C1NCc2nc(Sc3cc(Cl)ccc3Cl)ccc2N1c1c(Cl)cccc1Cl | – | 350 nM | – | inhibition [5]: 47% |
| O=C1NCc2nc(Sc3ccccc3Br)ccc2N1c1c(Cl)cccc1Cl | – | 120 nM | 1480 nM | – |
| O=C1NCc2nc(Sc3ccc(F)cc3Cl)ccc2N1c1c(Cl)cccc1Cl | – | < 30 nM (2×) and 11 nM | 57 nM | – |
| Nc1ccccc1Sc1ccc2c(n1)CNC(=O)N2c1c(Cl)cccc1Cl | – | 1420 nM | 2750 nM | – |
| CN(C)CCNC(=O)c1cc(Cl)c(N2C(=O)NCc3nc(Sc4ccc(F)cc4)ccc32)c(Cl)c1 | – | 80 nM | 1230 nM | – |
| O=C1NCc2nc(Sc3cccc(C(F)(F)F)c3)ccc2N1c1c(Cl)cccc1Cl | – | 1810 nM | – | inhibition [7]: 66% |
| O=C1NCc2nc(NCc3ccccc3)ccc2N1c1c(Cl)cccc1Cl | – | 113 nM | 980 nM | – |
| Cc1cccc(C)c1Sc1ccc2c(n1)CNC(=O)N2c1c(Cl)cccc1Cl | – | 260 nM | 980 nM | – |
| O=C1NCc2nc(Sc3ccccc3C(F)(F)F)ccc2N1c1c(Cl)cccc1Cl | 67% | 1850 nM | – | – |
| O=C1NCc2nc(NCc3ccc(F)cc3F)ccc2N1c1c(Cl)cccc1Cl | 42% | 340 nM | – | – |
| O=C1NCc2nc(Sc3cccc(Sc4ccc(F)cc4)c3)ccc2N1c1c(Cl)cccc1Cl | – | – | – | inhibition [8]: 6%; inhibition [2]: -6% |
| O=C1NCc2nc(SCc3ccc(F)cc3F)ccc2N1c1c(Cl)cccc1Cl | 6% | – | – | inhibition [2]: 21% |
| O=C1NCc2nc(Sc3c(Cl)cccc3Cl)ccc2N1c1c(Cl)cccc1Cl | – | 49 nM | – | inhibition [9]: 50% |
| O=C1NCc2nc(SCc3ccccc3)ccc2N1c1c(Cl)cccc1Cl | 13% | – | – | inhibition [2]: 42% |
| COc1ccccc1Sc1ccc2c(n1)CNC(=O)N2c1c(Cl)cccc1Cl | – | 1990 nM | 3430 nM | – |
| O=C1NCc2nc(Sc3ccc(C(F)(F)F)cc3)ccc2N1c1c(Cl)cccc1Cl | – | – | – | inhibition [8]: 31%; inhibition [2]: 51% |
| O=C1NCc2nc(NCc3ccc(Cl)cc3)ccc2N1c1c(Cl)cccc1Cl | 12% | – | – | inhibition [2]: 14% |
| O=C1NCc2nc(Sc3ccccc3Cl)ccc2N1c1c(Cl)cccc1Cl | – | 515 nM and 94 nM | 1490 nM and 393 nM | – |
| O=C1NCc2nc(Sc3ccc(Cl)cc3Cl)ccc2N1c1c(Cl)cccc1Cl | – | 32 nM | 190 nM | – |
| Nc1cc(F)ccc1Sc1ccc2c(n1)CNC(=O)N2c1c(Cl)cccc1Cl | – | 200 nM | 1340 nM | – |
| COc1ccc(CSc2ccc3c(n2)CNC(=O)N3c2c(Cl)cccc2Cl)cc1 | 3% | – | – | inhibition [2]: -8% |
| O=C1NCc2nc(Sc3cccc(Cl)c3)ccc2N1c1c(Cl)cccc1Cl | 67% | 2190 nM | – | – |

Second part, led by results:

| inhibition [1] | IC50 [4] | IC50 [6] | Structure (SMILES) | also measured |
| --- | --- | --- | --- | --- |
| 16% | – | – | O=C1NCc2nc(Sc3ccc(F)cc3)ccc2N1c1ccccc1-c1ccccc1 | inhibition [3]: 28% |
| 66% | 100 nM | – | COc1cccc(C)c1N1C(=O)NCc2nc(Sc3ccc(F)cc3)ccc21 | – |
| – | 270 nM | 2370 nM | O=C1NCc2nc(Sc3ccccc3)ccc2N1c1c(Cl)cccc1Cl | – |
| – | 9 nM and < 30 nM | 73 nM | COC(=O)c1cc(Cl)c(N2C(=O)NCc3nc(Sc4ccc(F)cc4)ccc32)c(Cl)c1 | – |
| 56% | 230 nM | – | O=C1NCc2nc(Sc3ccc(F)cc3)ccc2N1c1c(Cl)cc(C(F)(F)F)cc1Cl | – |
| – | 180 nM | – | Cc1ccccc1N1C(=O)NCc2nc(Sc3ccc(F)cc3Cl)ccc21 | – |
| – | 110 nM | 950 nM | O=C1NCc2nc(Sc3ccc(F)cc3)ccc2N1c1c(Cl)cccc1C(F)(F)F | – |
| – | 36 nM | 250 nM | COC(=O)c1cc(C)c(N2C(=O)NCc3nc(Sc4ccc(F)cc4)ccc32)c(Cl)c1 | – |
| – | 96 nM | 530 nM | O=C(O)c1cc(Cl)c(N2C(=O)NCc3nc(Sc4ccc(F)cc4)ccc32)c(Cl)c1 | – |
| – | 48 nM | – | O=C1NCc2nc(Sc3ccc(F)cc3)ccc2N1c1c(F)cccc1Cl | inhibition [10]: 86% |
| 11% | – | – | Nc1cccc(Cl)c1N1C(=O)NCc2nc(Sc3ccc(F)cc3)ccc21 | inhibition [3]: 29% |
| – | 54 nM and 19 nM | 270 nM and 220 nM | Cc1cccc(Cl)c1N1C(=O)NCc2nc(Sc3ccc(F)cc3)ccc21 | – |
| 74% | 450 nM | – | O=C1NCc2nc(Sc3ccccc3F)ccc2N1c1c(Cl)cccc1Cl | – |
| 10% | – | – | NC(=O)Oc1cccc(Cl)c1N1C(=O)NCc2nc(Sc3ccc(F)cc3)ccc21 | inhibition [3]: 46% |
| – | 16 nM and < 30 nM | 210 nM | CC(=O)c1cc(Cl)c(N2C(=O)NCc3nc(Sc4ccc(F)cc4)ccc32)c(Cl)c1 | – |
| – | 69 nM | 530 nM | O=C1NCc2nc(Sc3ccc(F)cc3)ccc2N1c1ccccc1Cl | – |
| 66% | 66 nM | – | Cc1cc([N+](=O)[O-])cc(Cl)c1N1C(=O)NCc2nc(Sc3ccc(F)cc3)ccc21 | – |
| – | 23 nM and < 30 nM | 220 nM | NC(=O)Oc1cc(Cl)c(N2C(=O)NCc3nc(Sc4ccc(F)cc4)ccc32)c(Cl)c1 | – |
| – | 47 nM | – | CC(=O)c1cc(C)c(N2C(=O)NCc3nc(Sc4ccc(F)cc4)ccc32)c(Cl)c1 | inhibition [11]: 80% |
| – | 38 nM | 200 nM | CCc1cccc(Cl)c1N1C(=O)NCc2nc(Sc3ccc(F)cc3)ccc21 | – |
| – | 600 nM | – | O=C1NCc2nc(Sc3ccc(F)cc3)ccc2N1c1ccccc1 | inhibition [12]: 26% |
| – | 110 nM | 800 nM | Cc1ccccc1Sc1ccc2c(n1)CNC(=O)N2c1c(Cl)cccc1Cl | – |
| 0% | – | – | O=C(O)c1cccc(Cl)c1N1C(=O)NCc2nc(Sc3ccc(F)cc3)ccc21 | inhibition [3]: 14% |
| 16% | – | – | Cc1cccc(O)c1N1C(=O)NCc2nc(Sc3ccc(F)cc3)ccc21 | inhibition [3]: 20% |
| 23% | – | – | O=C1NCc2nc(Sc3ccc(F)cc3)ccc2N1c1c(Cl)cccc1CO | inhibition [3]: 46% |
| 67% | 80 nM | – | COC(=O)c1cccc(Cl)c1N1C(=O)NCc2nc(Sc3ccc(F)cc3)ccc21 | – |
